EP4650362A1, “NEUROPROTECTIVE PSD-95 POLYPEPTIDE INHIBITOR AND USE THEREOF” (Beijing Tuo Jie Biopharmaceutical Co. Ltd., priority 2023, dated 2024)
Non-standard residues stand in square brackets, D forms with d. Residues, ends and D or L forms follow the SMILES beside them. hArg = N=C(N)NCCCC[C@H](N)C(=O)O; Tle = CC(C)(C)[C@H](N)C(=O)O; Dab = NCC[C@H](N)C(=O)O; Aib = CC(C)(N)C(=O)O

Columns and labels:
human PSD95-PDZ2 [1] = target: T1, human PSD95-PDZ2 (Homo sapiens, UniProt P78352); experiment: binding ELISA with Biotin-PDZ2; settings: for EC50: plate coated with 2 µM test compound, Biotin-PDZ2 titrated, read-out: EC50 (PDZ2); for Specificity for PDZ2 (PDZ3/PDZ2): ratio PDZ3/PDZ2
T1 construct: PDZ2 (155-249, the Flag-His-Avitag-TEVsite tag is italicized); made in house; host or cells: E. coli BL21-DE3 (PET vector)
Excerpt: (§1) The three PDZ domains in the PSD95 protein are structurally similar. Binding to the PDZ1 and PDZ2 domains can effectively block PSD95-mediated neuroexcitotoxicity. However, the biological function of binding to the PDZ3 domain is unclear. Therefore, to avoid potential safety concerns, this test example assessed the selectivity of polypeptide compounds for the PDZ2 and PDZ3 domains, aiming to identify polypeptide compounds that specifically bind to the PDZ2 domain. Site-specifically biotinylated Biotin-PDZ2 and Biotin-PDZ3 proteins were used for binding ELISA assays. […] After the blocking was complete, the blocking solution was discarded, and the plate was washed three times with PBST buffer. […] After the incubation was complete, the reaction solutions in the microplate were discarded, and the plate was washed three times with PBST. 100 µL of HRP-SA secondary antibody (diluted at 1:2000) was added to each well, and the plate was incubated at 37 °C for 1 h. After the plate was washed three times with PBST, 100 µL of TMB chromogenic substrate was added. […] The absorbance at 450 nm was measured using a SpectraMax M5 microplate reader, and the binding EC50 values of the test compounds to Biotin-PDZ2 or Biotin-PDZ3 were calculated using GraphPad Prism 9. […] The abilities of polypeptide compounds to bind to human PSD95-PDZ2 and human PSD95-PDZ3
Target sequence in this assay (P78352 155-249): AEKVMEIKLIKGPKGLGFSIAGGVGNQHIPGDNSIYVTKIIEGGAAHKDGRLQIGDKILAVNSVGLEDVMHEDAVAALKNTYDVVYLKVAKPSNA

human PSD95-PDZ2 [2] = target: T1, human PSD95-PDZ2; experiment: competitive ELISA, affinity for human PSD95-PDZ2; type: binding; settings: for IC50: competitive ELISA against 0.3 µM Biotin-NA-1, error of this test within three times, read-out: IC50; for rIC50: ratio of the affinity of the polypeptide compound to the affinity of NA-1
Excerpt: The objective of this test example was to determine the affinities of polypeptide compounds for human PSD95-PDZ2 using competitive ELISAs.
The amino acid sequence of PDZ2 protein was designed using human PSD95 (Uniprot Entry: P78352) as a template for PDZ: PDZ2 (155-249, the Flag-His-Avitag-TEVsite tag is italicized and was subsequently used for purification and biotinylation): […]
[…] (SEQ ID NO. 62). The PDZ2 gene was constructed onto a PET expression vector, and induced expression was performed using BL21-DE3 E. coli cells under conditions of 37 °C and 1 mM IPTG 4 h. Then centrifugation was performed at 10,000 g at 4 °C for 10 min, and the cell pellets were collected, resuspended in 1× PBS solution, and then lysed using a homogenizer. The lysate was centrifuged at high speed, and the supernatant was collected and filtered through a 0.45 µm membrane. A Ni-Sepharose affinity column was equilibrated with 5 column volumes of a 20 mM phosphate buffer (pH 8.0). The sample was centrifuged at high speed to remove impurities and loaded onto the column for binding. The column was rinsed with the 20 mM phosphate buffer until the A280 reading dropped to the baseline. Gradient elution was then performed with the 20 mM phosphate buffer and 0-500 mM imidazole. A protein was collected, and whether it was the target protein was determined. The purified sample described above was buffer-exchanged into 1× PBS solution, and the resulting solution was concentrated to a volume of 2 mL and further purified using a Superdex200 gel chromatography column (GE) equilibrated with 1× PBS. The target peak was collected and aliquoted for later use.
PSD95-PDZ2 (the tag was removed by TEV enzyme) was diluted with 1× PBS buffer to 1 µg/mL, added to a 96-well microplate (Corning, 9018, 25/box 96-well clear flat bottom plate) at 100 µL/well, and left to stand overnight at 4 °C for 16-20 h. After the liquid was discarded, the plate was washed three times with PBST (pH 7.4, 0.05% Tween-20) buffer, and a 4% BSA blocking solution diluted with PBST buffer was then added (300 µL/well). The plate was blocked by incubation in an incubator at 37 °C for 1 h. After the blocking was complete, the blocking solution was discarded, and the plate was washed three times with PBST buffer. Biotin-NA-1, at a constant concentration of 0.3 µM, and the test compounds, having a starting concentration of 100 µM and serially diluted ten-fold with PBS buffer to seven concentrations (100, 10, 1, 0.1, 0.01, 0.001, 0.0001, and 0 µM), were then added, and the plate was incubated in an incubator at 37 °C for 1 h. After the incubation was complete, the reaction solutions in the microplate were discarded, and the plate was washed three times with PBST. 100 µL of HRP-SA secondary antibody (diluted at 1:2000) was added to each well, and the plate was incubated at 37 °C for 1 h. After the plate was washed three times with PBST, 100 µL of TMB chromogenic substrate was added. The plate was incubated at room temperature for 1-3 min, and 100 µL of 1 M sulfuric acid was added to stop the reaction.
The absorbance at 450 nm was measured using a SpectraMax M5 microplate reader, and non-linear fitting was performed using GraphPad Prism 9 to calculate the binding IC50 values of the test compounds to PSD95-PDZ2 protein.

human PSD95-PDZ3 = target: T2, human PSD95-PDZ3 (Homo sapiens, UniProt P78352); experiment: binding ELISA with Biotin-PDZ3; settings: plate coated with 2 µM test compound, Biotin-PDZ3 titrated; read-out: EC50 (PDZ3)
T2 construct: PDZ3 (309-401, Flag-His-Avitag-TEVsite tag); made in house
Excerpt: as §1, with “domain. The expression and purification of PSD95-PDZ3 protein were carried out with reference to the steps in 3.1.2. The amino acid sequence of PDZ3 protein: […]” for “domain.”, “μL” for “µL”

T2 sequence (P78352 309-401): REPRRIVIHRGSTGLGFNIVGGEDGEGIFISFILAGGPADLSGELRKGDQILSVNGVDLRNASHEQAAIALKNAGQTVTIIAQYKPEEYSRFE

Row | SMILES | selectivity for the PSD95-PDZ2 domain (human PSD95-PDZ2 [1]; PDZ2 versus PDZ3, conclusion in words) | EC50 (human PSD95-PDZ2 [1]) [µM] | Specificity for PDZ2 (PDZ3/PDZ2) (human PSD95-PDZ2 [1]) | IC50 (human PSD95-PDZ2 [2]) [µM] | rIC50 (human PSD95-PDZ2 [2]) | EC50 (human PSD95-PDZ3) [µM]
1 | CC(C)[C@H](NC(=O)[C@H](CC(=O)O)NC(=O)[C@@H](NC(=O)[C@@H](NC(=O)[C@@H](NC(=O)COCCOCCNC(=O)[C@@H](CCCNC(=N)N)NC(=O)[C@@H](CCCNC(=N)N)NC(=O)[C@@H](CCCNC(=N)N)NC(=O)[C@@H](CCC(N)=O)NC(=O)[C@@H](CCCNC(=N)N)NC(=O)[C@@H](CCCNC(=N)N)NC(=O)[C@@H](CCCCN)NC(=O)[C@@H](CCCCN)NC(=O)[C@@H](CCCNC(=N)N)NC(=O)CNC(=O)[C@H](N)Cc1ccc(O)cc1)C(C)(C)C)C(C)(C)C)[C@@H](C)O)C(=O)O [Polypeptide compound 15, y-G-r-k-k-r-r-q-r-r-r-AEEA-Tle-Tle-T-D-V] | comparable to that of the positive drugs NA-1 and NoNO42 | 0.088 | >10000 | 2.62 | 3.00 | > 1000
2 | CCCC[C@H](NC(=O)[C@@H](CCCNC(=N)N)NC(=O)[C@@H](CCCNC(=N)N)NC(=O)[C@@H](CCCNC(=N)N)NC(=O)[C@@H](CCC(N)=O)NC(=O)[C@@H](CCCNC(=N)N)NC(=O)[C@@H](CCCNC(=N)N)NC(=O)[C@@H](CCCCN)NC(=O)[C@@H](CCCCN)NC(=O)[C@@H](CCCNC(=N)N)NC(=O)CNC(=O)[C@H](N)Cc1ccc(O)cc1)C(=O)N[C@H](C(=O)N[C@H](C(=O)N[C@H](C(=O)N[C@H](C(=O)N[C@H](C(=O)N[C@@H](CC(=O)O)C(=O)N[C@H](C(=O)O)C(C)C)[C@@H](C)O)C(C)(C)C)C(C)(C)C)[C@@H](C)O)[C@@H](C)O [Polypeptide compound 16, y-G-r-k-k-r-r-q-r-r-r-Nle-T-T-Tle-Tle-T-D-V] | – | 0.081 | – | 1.52 | – | > 1000
3 | CC[C@H](C)[C@H](NC(=O)[C@H](CCCCNC(=N)N)NC(=O)[C@H](CCCCNC(=N)N)NC(=O)[C@@H](NC(=O)[C@@H](CCCNC(=N)N)NC(=O)[C@@H](CCCNC(=N)N)NC(=O)[C@@H](CCCNC(=N)N)NC(=O)[C@@H](CCC(N)=O)NC(=O)[C@@H](CCCNC(=N)N)NC(=O)[C@@H](CCCNC(=N)N)NC(=O)[C@@H](CCCCN)NC(=O)[C@@H](CCCCN)NC(=O)[C@@H](CCCNC(=N)N)NC(=O)CNC(=O)[C@H](N)Cc1ccc(O)cc1)[C@@H](C)O)C(=O)N[C@H](C(=O)N[C@@H](CC(=O)O)C(=O)N[C@H](C(=O)O)C(C)C)[C@@H](C)O [Polypeptide compound 17, y-G-r-k-k-r-r-q-r-r-r-T-homoArg-homoArg-I-T-D-V] (H-[dY]G[dR][dK][dK][dR][dR][dQ][dR][dR][dR]T[hArg][hArg]ITDV-OH) | – | 0.269 | – | 0.605 | – | 38.3
4 | CC(C)[C@H](NC(=O)[C@H](CC(=O)O)NC(=O)[C@@H](NC(=O)[C@@H](NC(=O)[C@@H](NC(=O)[C@H](CCCCNC(=N)N)NC(=O)[C@H](CCN)NC(=O)C(C)(C)NC(=O)CNC(=O)[C@@H](CCCNC(=N)N)NC(=O)[C@@H](CCCNC(=N)N)NC(=O)[C@@H](CCCNC(=N)N)NC(=O)[C@@H](CCC(N)=O)NC(=O)[C@@H](CCCNC(=N)N)NC(=O)[C@@H](CCCNC(=N)N)NC(=O)[C@@H](CCCCN)NC(=O)[C@@H](CCCCN)NC(=O)[C@@H](CCCNC(=N)N)NC(=O)CNC(=O)[C@H](N)Cc1ccc(O)cc1)C(C)(C)C)C(C)(C)C)[C@@H](C)O)C(=O)O [Polypeptide compound 18, y-G-r-k-k-r-r-q-r-r-r-G-Aib-Dab-homoArg-Tle-Tle-T-D-V] (H-[dY]G[dR][dK][dK][dR][dR][dQ][dR][dR][dR]G[Aib][Dab][hArg][Tle][Tle]TDV-OH) | – | 0.015 | 79 | 0.152 | 0.17 | 1.19
5 | CC(C)[C@H](NC(=O)[C@H](CC(=O)O)NC(=O)[C@@H](NC(=O)[C@@H](NC(=O)[C@@H](NC(=O)[C@@H](NC(=O)CNC(=O)[C@@H](CCCNC(=N)N)NC(=O)[C@@H](CCCNC(=N)N)NC(=O)[C@@H](CCCNC(=N)N)NC(=O)[C@@H](CCC(N)=O)NC(=O)[C@@H](CCCNC(=N)N)NC(=O)[C@@H](CCCNC(=N)N)NC(=O)[C@@H](CCCCN)NC(=O)[C@@H](CCCCN)NC(=O)[C@@H](CCCNC(=N)N)NC(=O)CNC(=O)[C@H](N)Cc1ccc(O)cc1)[C@@H](C)O)C(C)(C)C)C(C)(C)C)[C@@H](C)O)C(=O)O [Polypeptide compound 20, y-G-r-k-k-r-r-q-r-r-r-G-T-Tle-Tle-T-D-V] (H-[dY]G[dR][dK][dK][dR][dR][dQ][dR][dR][dR]GT[Tle][Tle]TDV-OH) | – | 0.015 | 215 | 0.763 | 0.84 | 3.23
